Results on three molecules are retold here after PMC11284788, “NN1213 – A Potent, Long-Acting, and Selective Analog of Human Amylin” (Journal of Medicinal Chemistry, 2024).

Where two headings read alike, the source gives them in different places. Numbered stars: 1 amine (or outer) side, 2 acyl side, 3 side chain; on linkers, the order of the positions; unused ones are H or OH. Bridge positions count the residues as written; N and C are the ends. Side chains are listed from the residue outwards. Peptide text beside a SMILES is read from it. * marks the point of attachment. C20 diacid = O=C(O)CCCCCCCCCCCCCCCCCCC(=O)*; γGlu = O=C(O)[C@H](CCC(=O)[*:2])N[*:1]

Test [1] concerns the target T1, hAMY3R (Homo sapiens, UniProt O60896+P30988).
T1 sequence (P30988 25-474): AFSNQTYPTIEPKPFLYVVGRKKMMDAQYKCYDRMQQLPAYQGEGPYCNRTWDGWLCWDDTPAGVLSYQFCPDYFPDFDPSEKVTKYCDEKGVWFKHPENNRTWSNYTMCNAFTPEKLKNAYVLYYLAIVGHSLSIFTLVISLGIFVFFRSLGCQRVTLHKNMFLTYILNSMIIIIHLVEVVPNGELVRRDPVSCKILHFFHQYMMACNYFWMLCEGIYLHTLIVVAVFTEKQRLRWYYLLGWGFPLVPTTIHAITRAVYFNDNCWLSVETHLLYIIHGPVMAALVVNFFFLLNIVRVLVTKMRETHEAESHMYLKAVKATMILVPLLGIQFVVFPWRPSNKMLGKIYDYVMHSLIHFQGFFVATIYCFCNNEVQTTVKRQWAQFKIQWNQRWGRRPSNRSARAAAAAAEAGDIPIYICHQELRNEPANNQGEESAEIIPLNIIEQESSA
T1 sequence (O60896 24-148 partner): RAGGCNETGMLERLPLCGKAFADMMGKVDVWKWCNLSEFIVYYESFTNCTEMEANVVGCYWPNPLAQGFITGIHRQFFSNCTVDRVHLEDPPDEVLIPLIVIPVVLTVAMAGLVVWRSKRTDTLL
The test is described as follows: cAMP-responsive element luciferase reporter assay, human AMY3R. It is filed as cell-based. Also noted: expressed in transfected cells. The following applies: for ratio hCTR/hAMY3R: ratio of luciferase EC50 values. For orientation: In a reporter assay the amount or activity of a reporter protein is the signal.

The target of the next test is T2, rAMY3R (Rattus norvegicus, UniProt P32214+Q9JJ73).
T2 sequence (P32214 25-479 isoform P32214-2 limits assumed): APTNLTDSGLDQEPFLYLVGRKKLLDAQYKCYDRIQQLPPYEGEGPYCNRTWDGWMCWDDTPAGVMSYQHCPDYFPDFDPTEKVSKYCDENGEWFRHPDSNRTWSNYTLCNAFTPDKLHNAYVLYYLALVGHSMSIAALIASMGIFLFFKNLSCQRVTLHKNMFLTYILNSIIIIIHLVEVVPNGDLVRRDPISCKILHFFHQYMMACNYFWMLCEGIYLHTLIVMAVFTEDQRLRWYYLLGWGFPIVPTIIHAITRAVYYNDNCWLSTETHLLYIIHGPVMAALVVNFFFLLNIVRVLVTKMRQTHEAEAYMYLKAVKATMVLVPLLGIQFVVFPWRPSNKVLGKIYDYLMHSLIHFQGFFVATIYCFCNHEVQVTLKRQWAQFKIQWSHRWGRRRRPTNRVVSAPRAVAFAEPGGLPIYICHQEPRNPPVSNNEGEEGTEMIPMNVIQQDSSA
T2 sequence (Q9JJ73 23-147 partner): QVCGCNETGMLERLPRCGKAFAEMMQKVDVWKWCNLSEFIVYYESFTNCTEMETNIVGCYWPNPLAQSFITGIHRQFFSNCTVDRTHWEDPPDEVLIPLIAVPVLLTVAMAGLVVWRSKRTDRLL
Kind of test: scintillation proximity binding assay, rAMY3R membranes. The arrangement: expressed in transfected cells; host or cells: BHK tk-ts 13, transient co-transfection (FuGENE 6). Particulars: for rAMY3R pIC50: SPA binding assay, Tables S13 and S15; for ratio rCTR/rAMY3R: ratio of binding IC50 values. The procedure:
(§1) The apparent binding affinities were determined using a scintillation proximity assay with beads from PerkinElmer and cell membranes containing the AMY3R or CTRs. […] Membranes were harvested and membranes were prepared and kept at −80 °C until use. The assay was performed in a 384-well Optiplate (PerkinElmer). Membranes were mixed with scintillation proximity assay beads in a 1:1 ratio. […] Samples were analyzed on a TopCounter (Packard). The IC50 values were calculated using GraphPad Prism. See Supporting Information S7: SAR Screening Assay Methods (Binding Assays (Human and Rat)) for more information.
(§2) Binding Assays (Human and Rat). Brief descriptions of the methods used to determine binding affinities for SAR analysis are described below. Curves and IC50 values were plotted and calculated in GraphPad Prism using nonlinear regression (one site binding competition analysis), with pIC50 values […]
(§3) values were used to calculate the binding affinity ratios in order to express the selectivity of compounds for the AMY3R versus the CTR.
(§4) CTR Binding Assay. The binding assay was performed using scintillation proximity assay (SPA) beads (RPNQ0001) from PerkinElmer and cell membranes containing either the hCTR or rCTR. BHK […]
(§5) Membranes were prepared in the following way: the cells were rinsed with PBS and incubated with Versene for approximately 5 min before harvesting. The cells were flushed with PBS and the cell-suspension was centrifuged for 5 min at 1000 rpm. Cells were homogenized (Ultra Turrax) in a buffer […]
(§6) containing 20 mM Na-HEPES and 0.1 mM EDTA (pH 7.4, buffer 2). The resulting pellet was re-suspended in buffer 2 and protein concentration was measured (BCA protein assay, Pierce). The homogenate was kept cold during the whole procedure. The membranes were stored at –80 °C until […]
(§7) The binding assay was performed in a 384-well Optiplate (PerkinElmer) in a total volume of 40 μL.
(§8) Membranes were mixed with SPA beads in a 1:1 ratio. […]
(§9) mg/well. Test compounds were dissolved in DMSO and further diluted in assay buffer (50 mM HEPES, pH 7.4, 1 mM CaCl2, 5 mM MgCl2, 0.1% ovalbumin, and 0.02% Tween-20).
(§10) Calcitonin (NEX422 PerkinElmer) was dissolved in assay buffer and added to the Optiplate at a final […]
(§11) prior to centrifugation (1500 rpm, 10 min). Samples were analyzed on TopCounter (Packard).
(§12) AMY3R Binding Assay. The binding assay was performed using SPA beads (RPNQ0001) from PerkinElmer and cell membranes containing either the hAMY3R or rAMY3R. BHK tk-ts 13 cells were […]
(§13) and cultured as described above. Membranes were prepared in the following way: the cells were rinsed with PBS and incubated with Versene for approximately 5 min before harvesting. The cells were flushed with PBS and the cell-suspension was centrifuged for 5 min at 1000 rpm. Cells were homogenized (Ultra Turrax) in a buffer containing 20 mM Na-HEPES and 10 mM EDTA (pH 7.4), and […]
(§14) The resulting pellet was re-suspended, homogenized, and
(§15) 7.4, buffer 2). The resulting pellet was re-suspended in buffer 2 and protein concentration was measured (BCA protein assay, Pierce). The homogenate was kept cold during the whole procedure.
(§16) The membranes were stored at –80 °C until use.
(§17) Membranes were mixed with SPA beads in a 1:1 ratio. The final concentration of SPA beads was 0.05 mg/well. Test compounds were dissolved in DMSO and further diluted in assay buffer (50 mM […]
(§18) rAMY (NEX448 PerkinElmer) was dissolved in assay buffer and added to the Optiplate at a final

Test [2] addresses T1, hAMY3R. The test is described as follows: scintillation proximity binding assay, hAMY3R membranes. Particulars: for ratio hCTR/hAMY3R: ratio of binding IC50 values. Also noted: expressed in transfected cells; host or cells: BHK tk-ts 13, transient co-transfection; membranes for the SPA, whole cells for the species-specific assays. As to the method:
as §1, §2, §3, §4, §5, §6, §7, §8, §9, §10, §11, §12, §13, §14, §15, §16, §17, §18
Background: SPA uses beads or plates that emit light when radiolabelled molecules are held near them.

[3] abbreviates: SPA, BHK cell membranes, 125I-rat amylin, 120 min 25 °C, read-out: hAMY3R IC50.

Turning to `CC(C)C[C@H](NC(=O)[C@H](CCCNC(=N)N)NC(=O)[C@H](CCC(N)=O)NC(=O)[C@@H](NC(=O)[C@H](C)NC(=O)[C@@H]1CSSC[C@H](NC(=O)[C@@H](N)CCCCNC(=O)CC[C@H](NC(=O)CC[C@H](NC(=O)CCCCCCCCCCCCCCCCCCC(=O)O)C(=O)O)C(=O)O)C(=O)N[C@@H](CC(N)=O)C(=O)N[C@@H]([C@@H](C)O)C(=O)N[C@@H](C)C(=O)N[C@@H]([C@@H](C)O)C(=O)N1)[C@@H](C)O)C(=O)N[C@@H](C)C(=O)N[C@@H](CC(=O)O)C(=O)N[C@@H](Cc1ccccc1)C(=O)N[C@@H](CC(C)C)C(=O)N[C@@H](CCCNC(=N)N)C(=O)N[C@@H](Cc1c[nH]cn1)C(=O)N[C@@H](CO)C(=O)N[C@@H](CO)C(=O)N1CCC[C@H]1C(=O)N[C@@H](CC(N)=O)C(=O)N[C@@H](Cc1ccccc1)C(=O)NCC(=O)N[C@@H](C)C(=O)N1CCC[C@H]1C(=O)N[C@@H](CC(C)C)C(=O)N[C@@H](CO)C(=O)N[C@@H](CO)C(=O)N[C@H](C(=O)N[C@@H](CC(N)=O)C(=O)N[C@H](C(=O)NCC(=O)N[C@@H](CO)C(=O)N[C@@H](CC(=O)O)C(=O)N[C@H](C(=O)N[C@@H](Cc1ccc(O)cc1)C(N)=O)[C@@H](C)O)C(C)C)[C@@H](C)O` [Peptide 5] (H-K([γGlu-γGlu-C20 diacid])CNTATCATQRLADFLRHSSPNFGAPLSSTNVGSDTY-NH2; disulfide 2-7), the EC50 was 0.219 nM on hAMY3R [1] (luciferase (human receptor assay), Tables S12 and S14, read-out: hAMY3R pEC50 (converted)); 0.219 nM on hAMY3R [1] (luciferase (human receptor assay), BHK cells stably expressing hCTR+RAMP3 and CRE-luciferase, 3 h, 37 °C, 10% FBS, read-out: hAMY3R EC50). Besides, the “ratio hCTR/hAMY3R” value at hAMY3R [1] came out at 12; on hAMY3R [2] it was 27. At rAMY3R, the “rAMY3R pIC50” value amounted to 8.89. The “ratio rCTR/rAMY3R” value on rAMY3R stood at 81. In addition, the IC50 at hAMY3R [2] (SPA binding assay, Tables S13 and S15, read-out: hAMY3R pIC50 (converted)) was 1.12 nM; on hAMY3R [2] (setting [3]), 1.12 nM.
With `CC[C@H](C)[C@H](NC(=O)[C@H](C)NC(=O)CNC(=O)[C@H](Cc1ccccc1)NC(=O)[C@H](CC(N)=O)NC(=O)[C@@H]1CCCN1C(=O)[C@H](CO)NC(=O)[C@H](CO)NC(=O)[C@H](Cc1c[nH]cn1)NC(=O)[C@H](CCCNC(=N)N)NC(=O)[C@H](CC(C)C)NC(=O)[C@H](Cc1ccccc1)NC(=O)[C@H](CCC(=O)O)NC(=O)[C@H](C)NC(=O)[C@H](CC(C)C)NC(=O)[C@H](CCCNC(=N)N)NC(=O)[C@H](CCC(N)=O)NC(=O)[C@@H](NC(=O)[C@H](C)NC(=O)[C@@H]1CSSC[C@H](NC(=O)[C@@H](N)CCCCNC(=O)CC[C@H](NC(=O)CCCCCCCCCCCCCCCCCCC(=O)O)C(=O)O)C(=O)N[C@@H](CC(N)=O)C(=O)N[C@@H]([C@@H](C)O)C(=O)N[C@@H](C)C(=O)N[C@@H]([C@@H](C)O)C(=O)N1)[C@@H](C)O)C(=O)N1CCC[C@H]1C(=O)N[C@@H](CO)C(=O)N[C@@H](CO)C(=O)N[C@H](C(=O)N[C@@H](CC(N)=O)C(=O)N[C@H](C(=O)NCC(=O)N[C@@H](CO)C(=O)N[C@@H](CCCNC(=N)N)C(=O)N[C@H](C(=O)N[C@@H](Cc1ccc(O)cc1)C(N)=O)[C@@H](C)O)C(C)C)[C@@H](C)O` [Peptide 20] (H-K([γGlu-C20 diacid])CNTATCATQRLAEFLRHSSPNFGAIPSSTNVGSRTY-NH2; disulfide 2-7), the “ratio hCTR/hAMY3R” value on hAMY3R [1] worked out at 15; at hAMY3R [2] it was 31. The “ratio rCTR/rAMY3R” value on rAMY3R turned out to be 111.
For the molecule `CC[C@H](C)[C@H](NC(=O)[C@H](C)NC(=O)CNC(=O)[C@H](Cc1ccccc1)NC(=O)[C@H](CC(N)=O)NC(=O)[C@@H]1CCCN1C(=O)[C@H](CO)NC(=O)[C@H](CO)NC(=O)[C@H](Cc1c[nH]cn1)NC(=O)[C@H](CCCNC(=N)N)NC(=O)[C@H](CC(C)C)NC(=O)[C@H](Cc1ccccc1)NC(=O)[C@H](CC(N)=O)NC(=O)[C@H](C)NC(=O)[C@H](CC(C)C)NC(=O)[C@H](CCCNC(=N)N)NC(=O)[C@H](CCC(N)=O)NC(=O)[C@@H](NC(=O)[C@H](C)NC(=O)[C@@H]1CSSC[C@H](NC(=O)[C@H](CCCCN)NC(=O)CC[C@H](NC(=O)CCCCCCCCCCCCCCCCCCC(=O)O)C(=O)O)C(=O)N[C@@H](CC(N)=O)C(=O)N[C@@H]([C@@H](C)O)C(=O)N[C@@H](C)C(=O)N[C@@H]([C@@H](C)O)C(=O)N1)[C@@H](C)O)C(=O)N1CCC[C@H]1C(=O)N[C@@H](CO)C(=O)N[C@@H](CO)C(=O)N[C@H](C(=O)N[C@@H](CC(N)=O)C(=O)N[C@H](C(=O)NCC(=O)N[C@@H](CCCNC(=N)N)C(=O)N[C@@H](CC(N)=O)C(=O)N[C@H](C(=O)N[C@@H](Cc1ccc(O)cc1)C(N)=O)[C@@H](C)O)C(C)C)[C@@H](C)O` [Peptide 16], the “hAMY3R pEC50” value at hAMY3R [1] (luciferase (human receptor assay), Tables S12 and S14) was determined as 9.66. The “ratio hCTR/hAMY3R” value is recorded as 12 at hAMY3R [1] and 29 at hAMY3R [2]. Besides, the “rAMY3R pIC50” value on rAMY3R was determined as 8.75. Besides, the IC50 on rAMY3R (SPA, BHK cell membranes, 125I-rat amylin, 120 min 25 °C, read-out: rAMY3R IC50) worked out at 1.77 nM; at hAMY3R [2] (setting [3]), 0.662 nM. Also, the “ratio rCTR/rAMY3R” value at rAMY3R was determined as 55. At hAMY3R [2] (SPA binding assay, Tables S13 and S15), the “hAMY3R pIC50” value came out at 9.18.
